Legend:
Assay type in all cases: in vivo
Settings in all cases: 250 g/h, evaluated after 13 days
[1] = system: Alopecurus myosuroides (ALOMY); assay: Post-emergence herbicidal glasshouse test, percentage damage
How it was run: (§1)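 Spray: 250 g/h, aqueous acetone/water 50:50 + 0.5% Tween 20; pre-em 1 d after sowing, post-em at 8 d. Glasshouse 24/16 °C, 14 h light, 65% RH, watered twice daily. Read % damage at 13 d, scored 1–5 (5=80-100%).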

[2] = system: Echinochloa crus-galli (ECHCG); assay: as above
How it was run: as §1

Lolium perenne (LOLPE) [3] = assay: as above
How it was run: as §1

Avena fatua (AVEFA) [4] = assay: as above
How it was run: as §1

[5] = system: Alopecurus myosuroides (ALOMY); assay: Pre-emergence herbicidal glasshouse test, percentage damage
How it was run: as §1

[6] = system: Echinochloa crus-galli (ECHCG); assay: as above
How it was run: as §1

Lolium perenne (LOLPE) [7] = assay: as above
How it was run: as §1

Avena fatua (AVEFA) [8] = assay: as above
How it was run: as §1

Setaria faberi (SETFA) [9] = assay: as above
How it was run: as §1

Setaria faberi (SETFA) [10] = assay: Post-emergence herbicidal glasshouse test, percentage damage
How it was run: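 Percentage damage was scored 13 days after treatment on a five-point scale (1=0-19% to 5=80-100%). Treatments were post-emergence sprays on 8-day-old wheat, barley and SETFA plants in a glasshouse (24/16 °C day/night, 14 h light, 65% humidity), using acetone/water 50:50 with 0.5% Tween 20 at the stated rates. Wheat additionally received cloquintocet-mexyl safener at 50 g/ha.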

Structure (SMILES): CC#Cc1cc(C)c(C2C(=O)CC3(CCN(C(=O)c4ncccn4)CC3)CC2=O)c(C)c1 [Compound A19]
- ALOMY POST percentage damage (five point scale) [1]: 5 (5=80-100%)
- ECHCG POST percentage damage (five point scale) [2]: 5 (5=80-100%)
- LOLPE POST percentage damage (five point scale) (Lolium perenne (LOLPE) [3]): 5 (5=80-100%)
- AVEFA POST percentage damage (five point scale) (Avena fatua (AVEFA) [4]): 5 (5=80-100%)
- ALOMY PRE percentage damage (five point scale) [5]: 5 (5=80-100%)
- ECHCG PRE percentage damage (five point scale) [6]: 5 (5=80-100%)
- LOLPE PRE percentage damage (five point scale) (Lolium perenne (LOLPE) [7]): 5 (5=80-100%)
- AVEFA PRE percentage damage (five point scale) (Avena fatua (AVEFA) [8]): 5 (5=80-100%)
- SETFA PRE percentage damage (five point scale) (Setaria faberi (SETFA) [9]): 5 (5=80-100%)
- SETFA POST percentage damage (five point scale) (Setaria faberi (SETFA) [10]): 5 (5=80-100%)

Structure (SMILES): CC#Cc1cc(C)c(C2C(=O)CC3(CCN(C(=O)Nc4cccnc4)CC3)CC2=O)c(C)c1 [Compound A22]
- ALOMY POST percentage damage (five point scale) [1]: 5 (5=80-100%)
- ECHCG POST percentage damage (five point scale) [2]: 5 (5=80-100%)
- LOLPE POST percentage damage (five point scale) (Lolium perenne (LOLPE) [3]): 5 (5=80-100%)
- AVEFA POST percentage damage (five point scale) (Avena fatua (AVEFA) [4]): 5 (5=80-100%)
- ALOMY PRE percentage damage (five point scale) [5]: 5 (5=80-100%)
- ECHCG PRE percentage damage (five point scale) [6]: 5 (5=80-100%)
- LOLPE PRE percentage damage (five point scale) (Lolium perenne (LOLPE) [7]): 5 (5=80-100%)
- AVEFA PRE percentage damage (five point scale) (Avena fatua (AVEFA) [8]): 5 (5=80-100%)
- SETFA PRE percentage damage (five point scale) (Setaria faberi (SETFA) [9]): 5 (5=80-100%)
- SETFA POST percentage damage (five point scale) (Setaria faberi (SETFA) [10]): 5 (5=80-100%)

Structure (SMILES): CC#Cc1cc(C)c(C2C(=O)CC3(CCN(c4ncccn4)CC3)CC2=O)c(C)c1 [Compound A37]
- ALOMY POST percentage damage (five point scale) [1]: 5 (5=80-100%)
- ECHCG POST percentage damage (five point scale) [2]: 5 (5=80-100%)
- LOLPE POST percentage damage (five point scale) (Lolium perenne (LOLPE) [3]): 5 (5=80-100%)
- AVEFA POST percentage damage (five point scale) (Avena fatua (AVEFA) [4]): 5 (5=80-100%)
- ALOMY PRE percentage damage (five point scale) [5]: 5 (5=80-100%)
- ECHCG PRE percentage damage (five point scale) [6]: 5 (5=80-100%)
- LOLPE PRE percentage damage (five point scale) (Lolium perenne (LOLPE) [7]): 5 (5=80-100%)
- AVEFA PRE percentage damage (five point scale) (Avena fatua (AVEFA) [8]): 4 (4=60-79%)
- SETFA PRE percentage damage (five point scale) (Setaria faberi (SETFA) [9]): 5 (5=80-100%)
- SETFA POST percentage damage (five point scale) (Setaria faberi (SETFA) [10]): 5 (5=80-100%)

Structure (SMILES): CC#Cc1cc(C)c(C2C(=O)CC3(CCN(C(=O)C4CCOCC4)CC3)CC2=O)c(C)c1 [Compound A38]
- ALOMY POST percentage damage (five point scale) [1]: 5 (5=80-100%)
- ECHCG POST percentage damage (five point scale) [2]: 5 (5=80-100%)
- LOLPE POST percentage damage (five point scale) (Lolium perenne (LOLPE) [3]): 5 (5=80-100%)
- AVEFA POST percentage damage (five point scale) (Avena fatua (AVEFA) [4]): 4 (4=60-79%)
- ALOMY PRE percentage damage (five point scale) [5]: 5 (5=80-100%)
- ECHCG PRE percentage damage (five point scale) [6]: 5 (5=80-100%)
- LOLPE PRE percentage damage (five point scale) (Lolium perenne (LOLPE) [7]): 5 (5=80-100%)
- AVEFA PRE percentage damage (five point scale) (Avena fatua (AVEFA) [8]): 3 (3=40-59%)
- SETFA PRE percentage damage (five point scale) (Setaria faberi (SETFA) [9]): 5 (5=80-100%)
- SETFA POST percentage damage (five point scale) (Setaria faberi (SETFA) [10]): 5 (5=80-100%)

Structure (SMILES): CC#Cc1cc(C)c(C2C(=O)CC3(CCN(S(=O)(=O)CC4COCCO4)CC3)CC2=O)c(C)c1 (centres unmarked) [Compound A39]
- ALOMY POST percentage damage (five point scale) [1]: 5 (5=80-100%)
- ECHCG POST percentage damage (five point scale) [2]: 5 (5=80-100%)
- LOLPE POST percentage damage (five point scale) (Lolium perenne (LOLPE) [3]): 5 (5=80-100%)
- AVEFA POST percentage damage (five point scale) (Avena fatua (AVEFA) [4]): 5 (5=80-100%)
- ALOMY PRE percentage damage (five point scale) [5]: 4 (4=60-79%)
- ECHCG PRE percentage damage (five point scale) [6]: 5 (5=80-100%)
- LOLPE PRE percentage damage (five point scale) (Lolium perenne (LOLPE) [7]): 5 (5=80-100%)
- AVEFA PRE percentage damage (five point scale) (Avena fatua (AVEFA) [8]): 4 (4=60-79%)
- SETFA PRE percentage damage (five point scale) (Setaria faberi (SETFA) [9]): 5 (5=80-100%)
- SETFA POST percentage damage (five point scale) (Setaria faberi (SETFA) [10]): 5 (5=80-100%)

Structure (SMILES): CC#Cc1cc(C)c(C2C(=O)CC3(CCN(C(=O)Nc4ccccn4)CC3)CC2=O)c(C)c1 [Compound A41]
- ALOMY POST percentage damage (five point scale) [1]: 4 (4=60-79%)
- ECHCG POST percentage damage (five point scale) [2]: 5 (5=80-100%)
- LOLPE POST percentage damage (five point scale) (Lolium perenne (LOLPE) [3]): 5 (5=80-100%)
- AVEFA POST percentage damage (five point scale) (Avena fatua (AVEFA) [4]): 5 (5=80-100%)
- ALOMY PRE percentage damage (five point scale) [5]: 4 (4=60-79%)
- ECHCG PRE percentage damage (five point scale) [6]: 5 (5=80-100%)
- LOLPE PRE percentage damage (five point scale) (Lolium perenne (LOLPE) [7]): 5 (5=80-100%)
- AVEFA PRE percentage damage (five point scale) (Avena fatua (AVEFA) [8]): 4 (4=60-79%)
- SETFA PRE percentage damage (five point scale) (Setaria faberi (SETFA) [9]): 5 (5=80-100%)
- SETFA POST percentage damage (five point scale) (Setaria faberi (SETFA) [10]): 5 (5=80-100%)

Structure (SMILES): CC#Cc1cc(C)c(C2C(=O)CC3(CCN(S(=O)(=O)c4ccccn4)CC3)CC2=O)c(C)c1 [Compound A70]
- ALOMY POST percentage damage (five point scale) [1]: 5 (5=80-100%)
- ECHCG POST percentage damage (five point scale) [2]: 5 (5=80-100%)
- LOLPE POST percentage damage (five point scale) (Lolium perenne (LOLPE) [3]): 5 (5=80-100%)
- AVEFA POST percentage damage (five point scale) (Avena fatua (AVEFA) [4]): 5 (5=80-100%)
- ALOMY PRE percentage damage (five point scale) [5]: 5 (5=80-100%)
- ECHCG PRE percentage damage (five point scale) [6]: 5 (5=80-100%)
- LOLPE PRE percentage damage (five point scale) (Lolium perenne (LOLPE) [7]): 5 (5=80-100%)
- AVEFA PRE percentage damage (five point scale) (Avena fatua (AVEFA) [8]): 5 (5=80-100%)
- SETFA PRE percentage damage (five point scale) (Setaria faberi (SETFA) [9]): 5 (5=80-100%)
- SETFA POST percentage damage (five point scale) (Setaria faberi (SETFA) [10]): 5 (5=80-100%)

Structure (SMILES): CC#Cc1cc(C)c(C2C(=O)CC3(CCN(C(=O)NC(C)=O)CC3)CC2=O)c(C)c1 [Compound A71]
- ALOMY POST percentage damage (five point scale) [1]: 5 (5=80-100%)
- ECHCG POST percentage damage (five point scale) [2]: 5 (5=80-100%)
- LOLPE POST percentage damage (five point scale) (Lolium perenne (LOLPE) [3]): 5 (5=80-100%)
- AVEFA POST percentage damage (five point scale) (Avena fatua (AVEFA) [4]): 5 (5=80-100%)
- ALOMY PRE percentage damage (five point scale) [5]: 5 (5=80-100%)
- ECHCG PRE percentage damage (five point scale) [6]: 5 (5=80-100%)
- LOLPE PRE percentage damage (five point scale) (Lolium perenne (LOLPE) [7]): 5 (5=80-100%)
- AVEFA PRE percentage damage (five point scale) (Avena fatua (AVEFA) [8]): 5 (5=80-100%)
- SETFA PRE percentage damage (five point scale) (Setaria faberi (SETFA) [9]): 5 (5=80-100%)
- SETFA POST percentage damage (five point scale) (Setaria faberi (SETFA) [10]): 5 (5=80-100%)

Structure (SMILES): CC#Cc1cc(C)c(C2C(=O)CC3(CCN(S(=O)(=O)CC)CC3)CC2=O)c(OC)c1 [Compound A72]
- ALOMY POST percentage damage (five point scale) [1]: 5 (5=80-100%)
- ECHCG POST percentage damage (five point scale) [2]: 5 (5=80-100%)
- LOLPE POST percentage damage (five point scale) (Lolium perenne (LOLPE) [3]): 5 (5=80-100%)
- AVEFA POST percentage damage (five point scale) (Avena fatua (AVEFA) [4]): 5 (5=80-100%)
- ALOMY PRE percentage damage (five point scale) [5]: 5 (5=80-100%)
- ECHCG PRE percentage damage (five point scale) [6]: 5 (5=80-100%)
- LOLPE PRE percentage damage (five point scale) (Lolium perenne (LOLPE) [7]): 5 (5=80-100%)
- AVEFA PRE percentage damage (five point scale) (Avena fatua (AVEFA) [8]): 5 (5=80-100%)
- SETFA PRE percentage damage (five point scale) (Setaria faberi (SETFA) [9]): 5 (5=80-100%)
- SETFA POST percentage damage (five point scale) (Setaria faberi (SETFA) [10]): 5 (5=80-100%)

Structure (SMILES): CC#Cc1cc(C)c(C2C(=O)CC3(CCN(C(=O)c4ccccc4)CC3)CC2=O)c(OC)c1 [Compound A73]
- ALOMY POST percentage damage (five point scale) [1]: 5 (5=80-100%)
- ECHCG POST percentage damage (five point scale) [2]: 5 (5=80-100%)
- LOLPE POST percentage damage (five point scale) (Lolium perenne (LOLPE) [3]): 5 (5=80-100%)
- AVEFA POST percentage damage (five point scale) (Avena fatua (AVEFA) [4]): 5 (5=80-100%)
- ALOMY PRE percentage damage (five point scale) [5]: 5 (5=80-100%)
- ECHCG PRE percentage damage (five point scale) [6]: 5 (5=80-100%)
- LOLPE PRE percentage damage (five point scale) (Lolium perenne (LOLPE) [7]): 5 (5=80-100%)
- AVEFA PRE percentage damage (five point scale) (Avena fatua (AVEFA) [8]): 5 (5=80-100%)
- SETFA PRE percentage damage (five point scale) (Setaria faberi (SETFA) [9]): 5 (5=80-100%)
- SETFA POST percentage damage (five point scale) (Setaria faberi (SETFA) [10]): 5 (5=80-100%)

Structure (SMILES): CC#Cc1cc(C)c(C2C(=O)CC3(CCN(C(=O)c4ccccn4)CC3)CC2=O)c(OC)c1 [Compound A74]
- ALOMY POST percentage damage (five point scale) [1]: 5 (5=80-100%)
- ECHCG POST percentage damage (five point scale) [2]: 5 (5=80-100%)
- LOLPE POST percentage damage (five point scale) (Lolium perenne (LOLPE) [3]): 5 (5=80-100%)
- AVEFA POST percentage damage (five point scale) (Avena fatua (AVEFA) [4]): 5 (5=80-100%)
- ALOMY PRE percentage damage (five point scale) [5]: 5 (5=80-100%)
- ECHCG PRE percentage damage (five point scale) [6]: 5 (5=80-100%)
- LOLPE PRE percentage damage (five point scale) (Lolium perenne (LOLPE) [7]): 5 (5=80-100%)
- AVEFA PRE percentage damage (five point scale) (Avena fatua (AVEFA) [8]): 5 (5=80-100%)
- SETFA PRE percentage damage (five point scale) (Setaria faberi (SETFA) [9]): 5 (5=80-100%)
- SETFA POST percentage damage (five point scale) (Setaria faberi (SETFA) [10]): 5 (5=80-100%)
